Data from ChEMBL document CHEMBL5096164, “In Vivo Profiling of a Natural Alkaloid, Anatabine, in Rodents: Pharmacokinetics and Anti-Inflammatory Efficacy” (J Nat Prod, 2021).
The source made the active and inactive calls. The rule behind the calls is not given here.

Tests used:
[1] = Cmax in Wistar rat plasma at 2 mg/kg, iv administered as bolus dose measured after 5 to 360 mins by LC-MS/MS analysis; format: ADME, organism-based; set-up: dose 2 mg/kg, time upper 360 min, time lower 5 min, route iv
[2] = Cmax in Wistar rat plasma at 5 mg/kg, ip administered as bolus dose measured after 5 to 360 mins by LC-MS/MS analysis; format: ADME, organism-based; set-up: dose 5 mg/kg, time upper 360 min, time lower 5 min, route ip
[3] = Tmax in Wistar rat plasma at 2 mg/kg, iv administered as bolus dose measured after 5 to 360 mins by LC-MS/MS analysis; format: ADME, organism-based; details: time 5-360 min
[4] = Tmax in Wistar rat plasma at 5 mg/kg, ip administered as bolus dose measured after 5 to 360 mins by LC-MS/MS analysis; format: ADME, organism-based; details: time 5-360 min
[5] = AUC in Wistar rat plasma at 1 mg/kg, iv administered as bolus dose measured after 5 to 360 mins by LC-MS/MS analysis; format: ADME, organism-based; set-up: time upper 360 min, time lower 5 min, dose 1 mg/kg, route iv
[6] = AUC in Wistar rat plasma at 5 mg/kg, ip administered as bolus dose measured after 5 to 360 mins by LC-MS/MS analysis; format: ADME, organism-based; set-up: dose 5 mg/kg, time upper 360 min, time lower 5 min, route ip
[7] = Bioavailability in Wistar rat plasma at 1 mg/kg, iv administered as bolus dose measured after 5 to 360 mins by LC-MS/MS analysis; format: ADME, organism-based; details: in vivo, time 5-360 min
[8] = Bioavailability in Wistar rat plasma at 5 mg/kg, ip administered as bolus dose measured after 5 to 360 mins by LC-MS/MS analysis; format: ADME, organism-based; details: time 5-360 min
[9] = Half life in C57BL/6 mouse brain at 2 mg/kg, ip measured after 3 to 240 mins by LC-MS/MS analysis; format: ADME, organism-based; details: time 3-240 min
[10] = Tmax in C57BL/6 brain at 2 mg/kg, ip measured after 3 to 240 mins by LC-MS/MS analysis; format: ADME, organism-based; details: C57BL/6, mouse, time 3-240 min
[11] = AUC in C57BL/6 brain at 2 mg/kg, ip measured after 3 to 240 mins by LC-MS/MS analysis; format: ADME, organism-based; set-up: time 3-240 min, dose 2 mg/kg, route ip; details: C57BL/6, mouse
[12] = Ratio of Cmax in C57BL/6 mouse brain to plasma at 2 mg/kg, ip measured after 3 to 240 mins by LC-MS/MS analysis; format: ADME, organism-based; details: brain and plasma, time 3-240 min, read-out: BPR
Mus musculus [13] = assay: Antiinflammatory activity ip/LPS induced mouse model assessed as reduction in IL-6 level in plasma preincubated for 1 hr followed by LPS stimulation and measured after 2 hrs by ELISA method; format: functional, organism-based; details: dose 1-5 mg/kg, time 3.0 hrs, DDE = dose-dependent effect
Mus musculus [14] = assay: Antiinflammatory activity in LPS induced mouse model assessed as reduction in tumor necrosis factor alpha level in plasma at 5 mg/kg, ip preincubated for 1 hr followed by LPS stimulation and measured after 2 hrs by ELISA method relative to control; format: functional; set-up: scale not given: the % may be the effect or the level left
Mus musculus [15] = assay: Antiinflammatory activity LPS induced mouse model assessed as reduction in granulocyte-macrophage colony stimulating factor at 1 to 5 mg/kg, ip preincubated for 1 hr followed by LPS stimulation and measured after 2 hrs by luminex xMAP bead based assay; format: functional, organism-based; details: dose 1-5 mg/kg, time 3.0 hrs
Mus musculus [16] = assay: Antiinflammatory activity LPS induced mouse model assessed as reduction in IL-5 at 1 to 5 mg/kg, ip preincubated for 1 hr followed by LPS stimulation and measured after 2 hrs by luminex xMAP bead based assay; format: functional, organism-based; details: dose 1-5 mg/kg, time 3.0 hrs
Mus musculus [17] = assay: Antiinflammatory activity LPS induced mouse model assessed as reduction in IL-9 at 1 to 5 mg/kg, ip preincubated for 1 hr followed by LPS stimulation and measured after 2 hrs by luminex xMAP bead based assay; format: functional, organism-based; details: dose 1-5 mg/kg, time 3.0 hrs
[18] = Drug uptake in MOG (35 to 55 residues)-induced experimental autoimmune encephalomyelitis unimmunized mouse plasma at 25 microg/L by LC-MS/MS analysis; format: ADME; details: dose 25 µg/L
[19] = Drug uptake in MOG (35 to 55 residues)-induced experimental autoimmune encephalomyelitis immunized mouse in plasma at 50 microg/L by LC-MS/MS analysis; format: ADME; details: dose 50 µg/L
Mus musculus [20] = species on record: Mus musculus; assay: Antiinflammatory activity in MOG (35 to 55 residues)-induced experimental autoimmune encephalomyelitis mouse aerosol assessed as attenuation of body weight loss at 50 microg/L; format: functional, organism-based; details: dose 50.0 µg/L
[21] = Antiinflammatory activity in MOG (35 to 55 residues)-induced experimental autoimmune encephalomyelitis mouse aerosol assessed as reduction in clinical score at 25 microg/L measured on 15 day (reference value: 1.9); format: ADME; details: inhaled_or_intranasal, 360 h, dose 25 µg/L
[22] = Antiinflammatory activity in MOG (35 to 55 residues)-induced experimental autoimmune encephalomyelitis mouse aerosol assessed as reduction in clinical score at 25 microg/L measured on 16 day (reference value: 2.0); format: ADME; details: inhaled_or_intranasal, 384 h, dose 25 µg/L
[23] = Half life in rat at 0.06 mg/kg via inhalation; format: ADME, organism-based; details: in vivo, inhaled or intranasal, route inh
[24] = Cmax in rat at 0.06 mg/kg via inhalation; format: ADME, organism-based; set-up: dose 0.06 mg/kg, route inh; details: in vivo, inhaled or intranasal
[25] = Cmax in rat at 0.40 mg/kg via inhalation; format: ADME, organism-based; set-up: dose 0.4 mg/kg, route inh; details: in vivo, inhaled or intranasal, 0.4 mg/kg
[26] = Cmax in rat at 2.73 mg/kg via inhalation; format: ADME, organism-based; set-up: dose 2.73 mg/kg, route inh; details: in vivo, inhaled or intranasal
[27] = AUC in rat at 0.06 mg/kg via inhalation; format: ADME, organism-based; set-up: dose 0.06 mg/kg, route inh; details: in vivo, inhaled or intranasal
[28] = AUC in rat at 0.40 mg/kg via inhalation; format: ADME, organism-based; set-up: dose 0.4 mg/kg, route inh; details: in vivo, inhaled or intranasal, 0.4 mg/kg
[29] = AUC in rat at 2.73 mg/kg via inhalation; format: ADME, organism-based; set-up: dose 2.73 mg/kg, route inh; details: in vivo, inhaled or intranasal
[30] = Bioavailability in rat at 0.06 mg/kg via inhalation; format: ADME, organism-based; details: in vivo, inhaled or intranasal, route inh
[31] = Bioavailability in rat at 0.40 mg/kg via inhalation; format: ADME, organism-based; details: in vivo, inhaled or intranasal, route inh, dose 0.4 mg/kg
[32] = Drug concentration in carrageenan-induced paw edema in rat respiratory tract at 230.7 microg/L via inhalation measured for 30 mins; format: ADME; details: inhaled or intranasal, route inh, dose 230.7 µg/L, read-out: Drug uptake
Rattus norvegicus [33] = assay: Antiinflammatory activity in carrageenan-induced paw edema rat model assessed as inhibition of paw swelling at 5.34 mg/kg via inhalation measured at 2 hrs relative to control; format: functional; set-up: scale not given: the % may be the effect or the level left; details: route inh
Rattus norvegicus [34] = assay: Antiinflammatory activity in carrageenan-induced paw edema rat model assessed as inhibition of paw swelling at 5 mg/kg, ip measured at 2 hrs relative to control; format: functional; set-up: scale not given: the % may be the effect or the level left
Rattus norvegicus [35] = assay: Antiinflammatory activity in carrageenan-induced paw edema rat model assessed as recovery of adverse effect at hypothermia at 5 mg/kg, ip or 20 mg/kg administered daily via whole body inhalation; format: functional, organism-based

C1=CCC(c2cccnc2)NC1 (stereo not given)
Cmax [1]: 1180 ng/mL | Cmax [2]: 2730 ng/mL | Tmax [3]: 9.6 min | Tmax [4]: 9.6 min | AUC [5]: 1990 ng·h/mL | AUC [6]: 6820 ng·h/mL | F [7]: 100% | bioavailability [8]: 68.6% | half-life [9]: 21.6 min | Tmax [10]: 7.2 min | AUC [11]: 1490 ng·h/mL | Kp [12]: 2.5 | Activity (Mus musculus [13]): Dde | Activity (Mus musculus [14]): 34% | Activity (Mus musculus [15]): Active | Activity (Mus musculus [16]): Active | Activity (Mus musculus [17]): Active | Cp [18]: 531.5 ng/mL | Cp [19]: 1139.7 ng/mL | Activity (Mus musculus [20]): Active | Activity [21]: 0.6 | Activity [22]: 1.1 | half-life [23]: 238 min | Cmax [24]: 20 ng/mL | Cmax [25]: 160 ng/mL | Cmax [26]: 780 ng/mL | AUC [27]: 91.2 ng·h/mL | AUC [28]: 637 ng·h/mL | AUC [29]: 3060 ng·h/mL | bioavailability [30]: 76.5% | bioavailability [31]: 80.1% | concentration at 0.5 h [32]: 2.42 ng/mL | Activity (Rattus norvegicus [33]): 39.6% | Activity (Rattus norvegicus [34]): 46.1% | Activity (Rattus norvegicus [35]): Active
